# Laboratory results taken from ChEMBL document CHEMBL4732091, “Design, synthesis and biological evaluation of novel thiosemicarbazone-indole derivatives targeting prostate cancer cells” (Eur J Med Chem, 2021).
# Calls of active or inactive are those of the source. No cut-off for these calls is given here.
# Assays:
# [1] = test system: ECa-109 cell line; assay: Antiproliferative activity against human ECa-109 cell line cells assessed as inhibition of cell proliferation measured after 72 hrs by MTT assay; assay type: functional, cell-based; conditions: ECa-109, 72 h
# [2] = test system: MGC-803; assay: Antiproliferative activity against human MGC-803 cell line cells assessed as inhibition of cell proliferation measured after 72 hrs by MTT assay; assay type: functional, cell-based; conditions: MGC-803, 72 h
# [3] = test system: MCF7; assay: Antiproliferative activity against human MCF7 cell line cells assessed as inhibition of cell proliferation measured after 72 hrs by MTT assay; assay type: functional, cell-based; conditions: MCF7, 72 h
# [4] = test system: PC-3; assay: Antiproliferative activity against human PC-3 cells assessed as reduction in colony formation at 12.5 to 50 nM measured after 6 days by crystal violet staining based colony assay; assay type: functional, cell-based; conditions: dose 12.5-50 nM, time 6.0 day
# [5] = test system: PC-3; assay: Induction of cell cycle arrest in human PC-3 cells assessed as accumulation at G1/S phase at 125 nM measured after 48 hrs by propidium iodide staining based flowcytometry method (reference value: 19.23%); assay type: functional
# [6] = test system: PC-3; assay: Induction of cell cycle arrest in human PC-3 cells assessed as accumulation of cells in G1/S phase at 500 nM measured after 48 hrs by propidium iodide staining based flowcytometry method (reference value: 19.23%); assay type: functional
# [7] = test system: DU-145; assay: Induction of cell cycle arrest in human DU-145 cells assessed as accumulation at G1/S phase measured after 48 hrs by PI staining based Flowcytometry method; assay type: functional; conditions: dose 1.5-6 µM
# [8] = test system: PC-3; assay: Cell cycle arrest in human PC-3 cells assessed as accumulation of cells in G1/S phase by measuring upregulation of p27 measured after 48 hrs by Western blot assay; assay type: functional, cell-based; conditions: dose 125-500 nM
# [9] = test system: DU-145; assay: Induction of apoptosis in human DU-145 cells assessed as cell rounding at 0.5 to 2 uM measured after 72 hrs by Hoechst staining based fluorescence method; assay type: functional; conditions: dose 0.5-2 µM
# [10] = test system: PC-3; assay: Induction of apoptosis in human PC-3 cells assessed as early apoptotic cells at 25 nM measured after 72 hrs by Annexin V-FITC/propidium iodide staining based flow cytometry method (reference value: 0.452 %); assay type: functional
# [11] = test system: PC-3; assay: Induction of apoptosis in human PC-3 cells assessed as late apoptotic cells at 25 nM measured after 72 hrs by Annexin V-FITC/propidium iodide staining based flow cytometry method (reference value: 1.01 %); assay type: functional
# [12] = test system: PC-3; assay: Induction of apoptosis in human PC-3 cells assessed as viable cells at 100 nM measured after 72 hrs by Annexin V-FITC/propidium iodide staining based flow cytometry method (reference value: 97.2 %); assay type: functional; conditions: read-out: Activity
# [13] = test system: DU-145; assay: Induction of apoptosis in human DU-145 cells assessed as viable cells at 0.5 uM measured after 72 hrs by Annexin V-FITC/propidium iodide staining based flow cytometry method (reference value: 96.3 %); assay type: functional; conditions: read-out: Activity
# [14] = test system: DU-145; assay: Induction of apoptosis in human DU-145 cells assessed as late apoptotic cells at 0.5 uM measured after 72 hrs by Annexin V-FITC/propidium iodide staining based flow cytometry method (reference value: 1.77 %); assay type: functional
# [15] = test system: DU-145; assay: Induction of apoptosis in human DU-145 cells assessed as late apoptotic cells at 1 uM measured after 72 hrs by Annexin V-FITC/propidium iodide staining based flow cytometry method (reference value: 1.77 %); assay type: functional
# [16] = test system: DU-145; assay: Induction of apoptosis in human DU-145 cells assessed as late apoptotic cells at 2 uM measured after 72 hrs by Annexin V-FITC/propidium iodide staining based flow cytometry method (reference value: 1.77 %); assay type: functional
# [17] = test system: PC-3; assay: Induction of apoptosis in human PC-3 cells assessed as increase in Bax expression at 25 to 100 nM measured by Western blot assay; assay type: functional, cell-based; conditions: dose 25-100 nM
# [18] = test system: PC-3; assay: Induction of apoptosis in human PC-3 cells assessed as increased cleaved caspase 9/3 expression at 25 to 100 nM measured by Western blot assay; assay type: functional, cell-based; conditions: dose 25-100 nM
# [19] = test system: PC-3; assay: Induction of apoptosis in human PC-3 cells assessed as increase in PARP expression at 25 to 100 nM measured by Western blot assay; assay type: functional, cell-based; conditions: dose 25-100 nM
# [20] = test system: DU-145; assay: Induction of apoptosis in human DU-145 cells assessed as reduction in Bcl-2 expression at 0.5 to 2 uM measured by Western blot assay; assay type: functional, cell-based; conditions: dose 0.5-2 µM
# [21] = test system: DU-145; assay: Induction of apoptosis in human DU-145 cells assessed as increased cleaved caspase 9/3 at 0.5 to 2 uM measured by Western blot assay; assay type: functional, cell-based; conditions: dose 0.5-2 µM
# [22] = test system: PC-3; assay: Induction of apoptosis in human PC-3 cells assessed as increase in p53 expression at 25 to 100 nM measured by Western blot assay; assay type: functional, cell-based; conditions: dose 25-100 nM
# [23] = test system: PC-3; assay: Induction of ROS generation in human PC-3 cells assessed as increase in intracellular ROS level measured after 48 hrs by DCFH-DA staining based flowcytometry method; assay type: functional, cell-based; conditions: dose 25-100 nM
# [24] = test system: DU-145; assay: Induction of ROS generation in human DU-145 cells assessed as increase in intracellular ROS level measured after 48 hrs by DCFH-DA staining based flowcytometry method; assay type: functional, cell-based; conditions: dose 0.5-2 µM
# [25] = test system: DU-145; assay: Activation of MAPK signaling in human DU-145 cells assessed as increase in phosphorylated ERK 1/2 (Thr 202/Tyr 204) at 125 to 500 nM measured by Western blot assay; assay type: cell-based; conditions: filed as activator, dose 125-500 nM
# [26] = test system: PC-3; assay: Cytotoxicity against human PC-3 cells assessed as cell viability pre-treated with SB203580 for 4 hrs followed by compound treatment and measured after 72 hrs by MTT assay; assay type: functional, cell-based
# [27] = test system: DU-145; assay: Cytotoxicity against human DU-145 cells assessed as cell viability pre-treated with SB203580 for 4 hrs followed by compound treatment and measured after 72 hrs by MTT assay; assay type: functional, cell-based
# [28] = Toxicity in C57BL/6 mouse assessed as effect on liver at 2 mg/kg, IG measured after 2 weeks by hematoxylin and eosin staining based imaging analysis; assay type: organism-based; conditions: in vivo, po, 336 h
# [29] = Toxicity in C57BL/6 mouse assessed as effect on spleen at 2 mg/kg, IG measured after 2 weeks by hematoxylin and eosin staining based imaging analysis; assay type: organism-based; conditions: in vivo, po, 336 h
# [30] = Toxicity in C57BL/6 mouse assessed as effect on lung at 2 mg/kg, IG measured after 2 weeks by hematoxylin and eosin staining based imaging analysis; assay type: organism-based; conditions: in vivo, po, 336 h
# [31] = Toxicity in BALB/c-NU mouse assessed as changes in body weight at 12.5 to 25 mg/kg, IG qd for 21 days measured every 2 days; assay type: organism-based; conditions: in vivo, po, 504 h, dose 12.5-25 mg/kg, time 21 day
# [32] = test system: DU-145; assay: Antiproliferative activity against human DU-145 cells assessed as inhibition of cell proliferation at 0.156 to 20 uM by MTT assay; assay type: functional, cell-based; conditions: dose 0.156-20 µM, time 24-72 hrs, TDE = time-dependent effect
# [33] = test system: DU-145; assay: Induction of apoptosis in human DU-145 cells assessed as nuclear fragmentation at 0.5 to 2 uM measured after 72 hrs by Hoechst staining based fluorescence method; assay type: functional, cell-based; conditions: dose 0.5-2 µM
# [34] = test system: PC-3; assay: Induction of ROS generation in human PC-3 cells assessed as intracellular ROS level at 500 nM measured after 48 hrs by DCFH-DA staining based flowcytometry method (reference value: 55.2 %); assay type: functional
# [35] = test system: DU-145; assay: Induction of ROS generation in human DU-145 cells assessed as intracellular ROS level at 6 uM measured after 48 hrs by DCFH-DA staining based flowcytometry method (reference value: 52 %); assay type: functional
structure (smiles),measurement,setting,value
Cc1ccc(/C=N/NC(=S)Nc2ccc(C(=O)NCCc3c(C)[nH]c4ccccc34)cc2)nc1,IC50,[1],4.94 µM
same,IC50,[2],4.72 µM
same,IC50,[3],5.33 µM
same,inhibition,[4],Active
same,Activity,[5],19.98%
same,Activity,[6],49.02%
same,Activity,[7],Dose-dependent effect
same,Activity,[8],Active
same,Activity,[9],Active
same,Activity,[10],2.32%
same,Activity,[11],4.36%
same,viability at 0.1 µM,[12],35.9%
same,viability at 0.5 µM,[13],90.2%
same,Activity,[14],3.78%
same,Activity,[15],22.5%
same,Activity,[16],38.5%
same,Activity,[17],Active
same,Activity,[18],Active
same,Activity,[19],Active
same,Activity,[20],Active
same,Activity,[21],Active
same,Activity,[22],Active
same,Activity,[23],Dose-dependent effect
same,Activity,[24],Dose-dependent effect
same,Activity,[25],Active
same,inhibition,[26],inactive
same,inhibition,[27],inactive
same,Activity,[28],Non-Toxic
same,Activity,[29],Non-Toxic
same,Activity,[30],Non-Toxic
same,Activity,[31],Non-Toxic
same,Activity,[32],Tde
same,Activity,[33],Active
same,Activity,[34],98.9%
same,Activity,[35],86.2%
